Assay results as given in patent US7229996B2, “Rifamycin derivatives” (Cumbre Pharmaceuticals Inc., priority 2004, dated 2007).
In brackets after ≈: the same amount, converted by molar mass.

How the values were obtained:
Assay in all cases: MIC by microbroth dilution (NCCLS)
Format in all cases: cell-based
[1] = system: Streptococcus pneumoniae ATCC6303; settings: S. pneumoniae ATCC6303, Rif-S; THY Broth with catalase, 5% CO2
[2] = system: Haemophilus influenzae ATCC10211; settings: H. influenzae ATCC10211, Rif-S; BHI Broth with NAD and hematin
[3] = system: Staphylococcus aureus ATCC29213 GyrA^S84L ParC^S80F; settings: S. aureus ATCC29213 GyrA^S84L ParC^S80F, FQ-R
Procedure: (§1) Representative compounds were assayed for antimicrobial activity as follows: Minimum Inhibitory Concentrations (MICs) were determined by the microbroth dilution method as per NCCLS guidelines (National Committee for Clinical Laboratory Standards 2000), except that all growth incubations were conducted at 37° C. Bacterial cultures were tested in the following bacteriological media: S. aureus, S. epidermidis, and E. coli in Cation-Adjusted Mueller-Hinton Broth, S. pneumoniae in THY Broth supplemented with 1 mg/mL catalase under 5% CO2 atmosphere, S. pyogenes in THY Broth, E. faecalis in BHI Broth, H. influenzae in BHI Broth supplemented with 0.75 μL of 1 mg/mL NAD and 150 μL of 1 mg/ml hematin per 5 mL, and M. smegmatis in Middlebrook Broth plus ADC Enrichment.
(§2) S. aureus ATCC 29213 RpoB^H481Y is a rifampin-resistant strain with a mutation in RNA polymerase. […] S. aureus ATCC 29213 GyrA^S84LParC^S80F is a quinolone-resistant strain with mutations to both DNA gyrase and topoisomerase IV.

[4] = system: Staphylococcus aureus ATCC29213 RpoB^H481Y
Procedure: as §1, §2

[5] = system: Staphylococcus aureus ATCC29213 RpoB^D471Y
Procedure: as §1, §2

[6] = system: Enterococcus faecalis ATCC29212; settings: E. faecalis ATCC29212, Rif-S; BHI Broth
[7] = system: Streptococcus pyogenes ATCC19615; settings: S. pyogenes ATCC19615, Rif-S; THY Broth
[8] = system: Staphylococcus epidermidis ATCC 12228; settings: S. epidermidis ATCC 12228, Rif-S
[9] = system: Staphylococcus aureus ATCC29213; settings: S. aureus ATCC29213, Rif-S; Cation-Adjusted Mueller-Hinton Broth, 37° C.
[10] = system: Escherichia coli ATCC25922; settings: E. coli ATCC25922, Rif-S; Cation-Adjusted Mueller-Hinton Broth
[11] = Staphylococcus aureus, ATCC29213

Structure (SMILES): CO[C@H]1/C=C/O[C@@]2(C)Oc3c(C)c(O)c4c(O)c(c(/C=N/N5CCN(C)CC5)c(O)c4c3C2=O)NC(=O)/C(C)=C\C=C\[C@H](C)[C@H](O)[C@@H](C)[C@@H](O)[C@@H](C)[C@H](OC(C)=O)[C@@H]1C [Rifampin]
- Antimicrobial activity (MIC range) [1]: 0.061 µg/mL
- Antimicrobial activity (MIC range) [2]: 0.24 µg/mL
- Antimicrobial activity (MIC range) [3]: 0.008 µg/mL
- Antimicrobial activity (MIC range) ([4]; S. aureus ATCC29213 RpoB^H481Y, Rif-R): >64 µg/mL
- MIC [4, 11]: > 64 µg/mL
- Antimicrobial activity (MIC range) ([5]; S. aureus ATCC29213 RpoB^D471Y, Rif-R): 8 µg/mL
- MIC [5, 11]: 8 µg/mL (≈ 9.72 µM)
- Antimicrobial activity (MIC range) [6]: 0.98 µg/mL
- Antimicrobial activity (MIC range) [7]: 0.013 µg/mL
- Antimicrobial activity (MIC range) [8]: 0.03 µg/mL
- Antimicrobial activity (MIC range) [9]: 0.008 µg/mL
- Antimicrobial activity (MIC range) [10]: 16 µg/mL
